Series [1] has as its system lnc-HLX-2-7. The series is described as follows: qRT-PCR of lnc-HLX-2-7 expression in MB cells. Format: cell-based, human. The procedure: (§1) Cell culture. Cell lines were authenticated using single tandem repeat profiling. D425 Med cells were cultured in DMEM/F12 with 10% serum and 1% glutamate/penicillin/streptomycin. MED211 cells were cultured in medium composed of 30% Ham's F12/70% DMEM, 1% antibiotic antimycotic, […] B27 supplement, 5 μg/mL heparin, 20 ng/mL EGF, and 20 ng/mL FGF2. DAOY cells were cultured in DMEM with 10% serum and 1% glutamate/penicillin/streptomycin. All cells were grown in a humidified incubator at 37° C., 5% CO2. For blocking of BET bromodomain protein in D425 Med and MED211 cells, JQ1 (SML1524-5MG, Sigma Aldrich, St. Louis, MO) was added, and the medium was changed every other day.
(§2) Quantitative real-time PCR (qRT-PCR). Total RNA was purified using the Direct-zol RNA Miniprep kit (Zymo Research, Irvine, CA). To obtain RNA from xenografts, tumor tissues were pulverized and then used for purification.
(§3) ASO-lnc-HLX2-7. Antisense oligonucleotides (ASOs) were designed using the Integrated DNA Technologies (IDT) Antisense Design Tool (IDT, Coralville, IA). ASO knockdowns were performed with 50 nM (final concentration) locked nucleic acid (LNA) GapmeRs transfected with Lipofectamine 3000 (Thermo Fisher Scientific, Waltham, MA). All ASOs were modified with phosphorothioate (PS) linkages. The following ASOs were used: ASO targeting lnc-HLX-2-7 (ASO-lnc-HLX-2-7): +T*+G*+A*G*A*G*A*T*T*A*A*T*C*T*A*G*A*T*+T*+G*+C (SEQ ID NO:240) and control ASO targeting luciferase (ASO-Luc): +T*+C*+G*A*A*G*T*A*C*T*C*A*G*C*G*T*A*A*+G*+T*+T (SEQ ID NO:241). The PS linkages are indicated with * and LNA-modified oligonucleotides are indicated with +.
(§4) siRNA-mediated knockdown of HLX, MYC, and MY CN. siRNAs targeting HLX (catalog no. 4427037, ID: s6639) and MYC (catalog no. 4427037, ID: s9129) were purchased from Thermo Fisher Scientific. siRNAs were transfected at 20 nM for 48 h using Lipofectamine RNAiMAX (Thermo Fisher Scientific). The efficiency was determined by qRT-PCR.
In general terms: Quantitative PCR measures a nucleic acid by following its amplification.

In series [2] the test system is D425 Med cells. The series can be described thus: Cell proliferation, living cells counted by trypan blue staining. The series is classed as cell-based, human. The procedure: as §1
(§5) Cell proliferation, apoptosis, and 3D colony formation assays. Cells were plated in 96-well plates at 5×10^3 cells per well in triplicate. After 72 hours of ASO or siRNA transfection, living cells were counted by trypan blue staining. Apoptotic cells were analyzed using a GloMax luminometer (Promega, Fitchburg, WI) with conditions optimized for the Caspase-Glo 3/7 Assay. For the 3D colony formation assay, cells were seeded in 24-well plates at a density of 1×10^2 cells/well and were stained with crystal violet solution approximately 14 days later. Colony number was determined using the EVE cell counter (Nano Entek, Pleasanton, CA), and staining intensity was analyzed using ImageJ software.

Series [3] has as its system MED211 cells. The series is described as above. The series is classed as cell-based, human. The procedure: as §1, §5
The test system of series [4] is various types of cancer including MB. Conditions: by inhibiting BRD4-mediated regulation of MYC; previous studies; cited from earlier work.
Series [5] deals with lnc-HLX-2-7. The series can be described thus: qPCR of lnc-HLX-2-7 and MYC expression in JQ1-treated mouse xenografts. The series is classed as in vivo, NOD-SCID mice. Conditions: JQ1 50 mg/kg intraperitoneal on alternating days for 14 days vs DMSO.
Source text: as §2
Medulloblastoma xenografts (intracranial). All mouse studies were approved and performed in accordance with the policies and regulations of the Animal Care and Use Committee of Johns Hopkins University. Intracranial MB xenografts were established by injecting D425 Med cells, MED211 cells, D425 Med cells with lnc-HLX-2-7 deleted, and MED211 cells with lnc-HLX-2-7 deleted into the cerebellums of NOD-SCID mice (Jackson Laboratory, Bar Harbor, ME). Cerebellar coordinates were −2 mm from lambda, +1 mm laterally, and 1.5 mm deep. Seven days after injection, mice were administered JQ1 (50 mg/kg) or vehicle alone (DMSO) on alternating days via intraperitoneal injection for 14 days. Tumor growth was evaluated by weekly bioluminescence imaging using an in vivo spectral imaging system (IVIS Lumina II, Xenogen, Alameda, CA).

A further series deals with MYC. The series is described as follows: qRT-PCR of MYC expression in MB cells. The series is classed as cell-based, human. The settings on record: JQ1 100 or 300 nM, relative to DMSO-treated cells. The procedure:
as §1, §2, §4

For series [6], the system named is D425 Med cells. The series can be described thus: Apoptosis, Caspase-Glo 3/7 Assay. The series is classed as cell-based, human. The settings on record: ASO 50 nM, p<0.01. Here is the method:
as §5

Series [7] concerns MED211 cells. The series can be described thus: Apoptosis, Caspase-Glo 3/7 Assay. The series is classed as cell-based, human. Conditions: ASO 50 nM, p<0.01. The procedure:
as §5

The test system of the next series is HLX. The series is described as follows: qRT-PCR of HLX expression in MB cells. Conditions: ASO 50 nM. The series is classed as cell-based, human. Here is the method: as §2, §3, §4

l = locked nucleic acid (LNA); d = 2'-deoxy (DNA)

On to `Cc1sc2c(c1C)C(c1ccc(Cl)cc1)=N[C@@H](CC(=O)OC(C)(C)C)c1nnc(C)n1-2` [JQ1], for which the lnc-HLX-2-7 expression entry is given as “downregulated” in the series on lnc-HLX-2-7 [1] (D425 Med cells, JQ1 100 or 300 nM, relative to DMSO-treated cells) and “downregulated” with lnc-HLX-2-7 [1] (MED211 cells, JQ1 100 or 300 nM, relative to DMSO-treated cells). Also, the “lnc-HLX2-7 expression (summary statement)” value in the series with lnc-HLX-2-7 [1] (no cell line named at the place) is listed as “reduced”. For the same compound, the “cell growth (viable cell numbers)” value in the series on D425 Med cells [2] (D425 Med cells treated with JQ1, relative to DMSO (FIG. 11B), suppressed by lnc-HLX-2-7 overexpression) is recorded as “cell growth inhibition”; in the series on MED211 cells [3] (MED211 cells treated with JQ1, relative to DMSO (FIG. 11B), suppressed by lnc-HLX-2-7 overexpression), “cell growth inhibition”. Moreover, the cancer cell proliferation entry in [4] is given as “effectively suppresses”. For the same compound, the “lnc-HLX2-7 expression in vivo” value in the series on lnc-HLX-2-7 [5] is “downregulation”. Further, the MYC expression result in the series on MYC (D425 Med cells) and with MYC (MED211 cells) was “downregulated” throughout.
Regarding “ASO-lnc-HLX-2-7: LNA GapmeR antisense oligonucleotide with phosphorothioate linkages targeting lnc-HLX-2-7: +T*+G*+A*G*A*G*A*T*T*A*A*T*C*T*A*G*A*T*+T*+G*+C (antisense TGAGAGATTAATCTAGATTGC; sugars from the 5' end l3 d15 l3, all phosphorothioate, methylation of C not given here)”, the lnc-HLX-2-7 expression entry with lnc-HLX-2-7 [1] (D425 Med cells, ASO 50 nM, compared to control ASO-luc, p<0.01) is on record as “significantly decreased”; in the series on lnc-HLX-2-7 [1] (MED211 cells, ASO 50 nM, compared to control ASO-luc, p<0.01), “significantly decreased”. Also, the “MB cell growth (viable cell numbers)” value in the series with D425 Med cells [2] (D425 Med cells, ASO 50 nM, 72 hours after transfection, p<0.01) is reported as “significantly suppressed”; with MED211 cells [3] (MED211 cells, ASO 50 nM, 72 hours after transfection, p<0.01) it was “significantly suppressed”. The “apoptosis (apoptotic cell numbers)” value in the series on D425 Med cells [6] and with MED211 cells [7] was “induced apoptosis” in each case. For the same compound, the HLX expression result in the series on HLX (D425 Med cells) and in the series on HLX (MED211 cells) was “significantly reduced” in each case.

The values are drawn from patent US12624398B2, “Use of long non-coding RNAs in medulloblastoma” (THE JOHNS HOPKINS UNIVERSITY, priority 2019, dated 2026).
